# Experimental data taken from US20240408145A1, “Gene Therapy” (Ospedale San Raffaele S.r.l., priority 2021, published 2024).
# “Also recorded” adds a separate entry of the source. Structures can show the parent of a compound that is named as a salt.
# B1: GSE56: mRNA encoding for a dominant negative p53 truncated form (GSE56), co-electroporated; SEQ ID No. 8 and 9 (nucleic acid)
# sense: ATGGATGGATGGTGTCCTGGGAGAGACCGTCGGACAGAGGAAGAAAATTTCCGCAAAAAAGAAGAGCATTGCCCGGAGCTGCCCCCAGGGAGTGCAAAGAGAGCACTGCCCACCAGCACAAGCTCCTCTCCCCAGCAAAAGAAAAAACCACTCGATGGAGAATATTTCACCCTTAAGATCCGTGGGCGTGAGCGCTTCGAGATGTTCCGAGAGCTGAATGAGGCCTTGGAATTAAAGGATGCCCGTGCTGCCGAGGAGTCAGGAGACAGCAGGGCTCACTCCAGCTACCCGAAGATAGTTAGTTAG
# Experiments:
# BRD4 = BRD4 (Homo sapiens, UniProt O60885); details: cited from earlier work
# JNK and JIP = details: read-out: IC50, protein-protein interaction between JNK and JIP; cited from earlier work
# JNK [1] = test system: T1, JNK; details: cited from earlier work
# T1 construct: IC50; Ki
# ATR [2] = molecular target: T2, ATR (Mus musculus, UniProt Q9JKK8); details: 3T3TopBP1-ER cells; cited from earlier work
# T2 construct: endogenous in cells; host or cells: 3T3TopBP1-ER cells
# T2 sequence (Q9JKK8 whole entry): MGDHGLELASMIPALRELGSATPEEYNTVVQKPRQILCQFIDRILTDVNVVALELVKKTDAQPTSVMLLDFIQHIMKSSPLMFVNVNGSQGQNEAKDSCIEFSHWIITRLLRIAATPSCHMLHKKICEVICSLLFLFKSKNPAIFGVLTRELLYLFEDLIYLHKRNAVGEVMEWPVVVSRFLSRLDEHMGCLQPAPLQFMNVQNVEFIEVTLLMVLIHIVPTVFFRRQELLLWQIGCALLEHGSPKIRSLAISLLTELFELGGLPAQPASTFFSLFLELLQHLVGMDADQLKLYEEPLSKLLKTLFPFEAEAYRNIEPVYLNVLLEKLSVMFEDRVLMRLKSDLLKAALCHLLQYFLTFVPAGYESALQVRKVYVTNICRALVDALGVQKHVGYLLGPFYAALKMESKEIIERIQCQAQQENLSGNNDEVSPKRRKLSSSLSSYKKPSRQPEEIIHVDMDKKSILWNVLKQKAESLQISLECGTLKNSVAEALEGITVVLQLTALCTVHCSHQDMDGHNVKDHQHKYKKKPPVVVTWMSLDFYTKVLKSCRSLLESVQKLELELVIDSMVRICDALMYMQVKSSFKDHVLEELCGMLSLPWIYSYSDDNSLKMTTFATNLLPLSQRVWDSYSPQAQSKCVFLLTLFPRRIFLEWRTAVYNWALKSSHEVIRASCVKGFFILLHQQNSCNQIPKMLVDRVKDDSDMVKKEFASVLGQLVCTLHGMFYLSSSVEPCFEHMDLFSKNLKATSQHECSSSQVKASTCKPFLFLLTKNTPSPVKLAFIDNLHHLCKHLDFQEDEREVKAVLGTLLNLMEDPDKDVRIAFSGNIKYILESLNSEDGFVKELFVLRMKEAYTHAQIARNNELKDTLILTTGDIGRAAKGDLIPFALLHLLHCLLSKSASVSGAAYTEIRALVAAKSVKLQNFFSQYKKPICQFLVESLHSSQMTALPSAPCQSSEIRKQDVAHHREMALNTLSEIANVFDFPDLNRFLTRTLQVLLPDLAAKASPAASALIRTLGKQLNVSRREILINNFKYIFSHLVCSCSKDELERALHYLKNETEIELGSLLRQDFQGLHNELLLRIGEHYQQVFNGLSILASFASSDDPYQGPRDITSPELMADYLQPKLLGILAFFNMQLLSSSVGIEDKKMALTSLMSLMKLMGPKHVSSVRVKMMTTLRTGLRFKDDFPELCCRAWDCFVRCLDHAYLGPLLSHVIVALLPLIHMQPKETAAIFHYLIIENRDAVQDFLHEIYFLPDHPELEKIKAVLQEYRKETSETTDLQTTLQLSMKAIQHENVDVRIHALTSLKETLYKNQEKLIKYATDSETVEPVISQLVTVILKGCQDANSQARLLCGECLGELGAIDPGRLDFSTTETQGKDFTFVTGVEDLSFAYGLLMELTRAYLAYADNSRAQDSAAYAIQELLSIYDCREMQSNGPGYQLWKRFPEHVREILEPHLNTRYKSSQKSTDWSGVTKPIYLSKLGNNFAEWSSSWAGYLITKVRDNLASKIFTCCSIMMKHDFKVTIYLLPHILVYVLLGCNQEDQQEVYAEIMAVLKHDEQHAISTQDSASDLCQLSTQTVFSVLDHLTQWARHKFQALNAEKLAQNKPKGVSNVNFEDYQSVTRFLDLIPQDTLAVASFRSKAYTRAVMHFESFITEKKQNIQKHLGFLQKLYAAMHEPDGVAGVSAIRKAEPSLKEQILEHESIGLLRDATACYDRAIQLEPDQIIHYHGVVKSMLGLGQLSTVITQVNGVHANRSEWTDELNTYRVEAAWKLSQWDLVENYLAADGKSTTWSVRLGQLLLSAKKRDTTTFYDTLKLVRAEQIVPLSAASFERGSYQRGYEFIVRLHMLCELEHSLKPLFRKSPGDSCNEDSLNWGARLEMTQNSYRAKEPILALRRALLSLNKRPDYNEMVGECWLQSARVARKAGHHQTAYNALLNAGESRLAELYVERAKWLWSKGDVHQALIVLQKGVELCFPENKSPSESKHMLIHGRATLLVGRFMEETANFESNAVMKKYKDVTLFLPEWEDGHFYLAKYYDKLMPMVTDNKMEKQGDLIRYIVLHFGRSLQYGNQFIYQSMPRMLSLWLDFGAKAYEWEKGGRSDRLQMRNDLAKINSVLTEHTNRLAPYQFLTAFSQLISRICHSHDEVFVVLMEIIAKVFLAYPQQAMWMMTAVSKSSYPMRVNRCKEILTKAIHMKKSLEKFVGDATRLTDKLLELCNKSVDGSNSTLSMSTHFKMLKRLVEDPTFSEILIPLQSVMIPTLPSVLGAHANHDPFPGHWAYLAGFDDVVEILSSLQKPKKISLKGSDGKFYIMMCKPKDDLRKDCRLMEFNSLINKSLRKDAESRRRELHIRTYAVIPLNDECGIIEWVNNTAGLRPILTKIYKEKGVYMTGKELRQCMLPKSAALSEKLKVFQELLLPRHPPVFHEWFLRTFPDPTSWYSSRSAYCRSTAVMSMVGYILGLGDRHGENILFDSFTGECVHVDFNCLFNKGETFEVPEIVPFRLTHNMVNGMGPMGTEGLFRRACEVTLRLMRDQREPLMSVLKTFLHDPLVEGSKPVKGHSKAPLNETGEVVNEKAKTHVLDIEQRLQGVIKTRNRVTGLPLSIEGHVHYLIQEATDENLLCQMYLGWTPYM
# T2 sequence (Q8BMG1 whole entry partner): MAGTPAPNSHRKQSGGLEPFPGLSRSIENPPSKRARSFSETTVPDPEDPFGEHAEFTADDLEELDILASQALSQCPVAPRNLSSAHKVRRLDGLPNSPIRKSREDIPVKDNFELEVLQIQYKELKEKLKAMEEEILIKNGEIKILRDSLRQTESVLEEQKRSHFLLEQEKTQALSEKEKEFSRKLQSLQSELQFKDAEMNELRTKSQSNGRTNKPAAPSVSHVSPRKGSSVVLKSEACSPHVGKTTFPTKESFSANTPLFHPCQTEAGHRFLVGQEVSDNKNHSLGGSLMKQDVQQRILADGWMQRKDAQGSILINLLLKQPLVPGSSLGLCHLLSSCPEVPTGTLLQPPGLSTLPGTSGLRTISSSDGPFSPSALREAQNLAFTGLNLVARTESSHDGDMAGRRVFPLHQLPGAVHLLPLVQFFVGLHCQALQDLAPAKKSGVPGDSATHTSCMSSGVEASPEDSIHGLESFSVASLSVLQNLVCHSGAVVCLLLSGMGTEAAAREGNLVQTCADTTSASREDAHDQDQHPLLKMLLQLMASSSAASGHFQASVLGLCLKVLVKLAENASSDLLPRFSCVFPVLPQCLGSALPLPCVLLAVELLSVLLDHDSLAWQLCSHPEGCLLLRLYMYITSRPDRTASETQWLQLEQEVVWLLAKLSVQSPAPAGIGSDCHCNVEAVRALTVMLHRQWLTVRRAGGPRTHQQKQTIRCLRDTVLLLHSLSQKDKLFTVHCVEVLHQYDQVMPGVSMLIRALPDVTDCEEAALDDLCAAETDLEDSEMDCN
# JNK1, 2 and 3 = details: cited from earlier work
# human CD34+ HSPCs [3] = experiment: HDR gene editing efficiency in HSPCs (ddPCR, GFP flow cytometry); type: cell-based
# c-Jun phosphorylation = details: cited from earlier work
# [4] = cited from earlier work
# JNK [5] = details: cited from earlier work
# ATR [6] = molecular target: ATR (Homo sapiens, UniProt Q13535); details: cited from earlier work
# ATM kinase = ATM kinase (Homo sapiens, UniProt Q13315); details: cited from earlier work
# Mv1Lu cells = details: read-out: IC50, TGFβ-induced AP-1 activation; cited from earlier work
# [7] = test system: human recombinant MEK1, MKK4, IKKα, PKCα, Src, Syc and PDGFα; details: at concentrations less than 30 μM; cited from earlier work
# HIPK2 = HIPK2 (Homo sapiens, UniProt Q9H2X6); details: cited from earlier work
# casein kinase 2 (CK2) = casein kinase 2 (CK2) (Homo sapiens, UniProt P68400); details: cited from earlier work
# Chain of casein kinase 2 (CK2) (P68400 whole entry): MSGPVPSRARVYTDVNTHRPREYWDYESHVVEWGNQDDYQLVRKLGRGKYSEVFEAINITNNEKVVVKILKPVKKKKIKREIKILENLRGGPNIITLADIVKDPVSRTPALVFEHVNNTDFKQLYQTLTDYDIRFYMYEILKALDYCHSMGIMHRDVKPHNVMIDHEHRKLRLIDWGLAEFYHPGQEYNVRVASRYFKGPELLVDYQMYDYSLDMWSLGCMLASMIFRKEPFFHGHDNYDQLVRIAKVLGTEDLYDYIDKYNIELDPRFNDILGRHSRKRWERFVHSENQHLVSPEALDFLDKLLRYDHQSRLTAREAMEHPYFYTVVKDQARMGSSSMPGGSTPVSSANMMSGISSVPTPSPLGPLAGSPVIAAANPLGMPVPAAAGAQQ
# DYRK1a = DYRK1a (Homo sapiens, UniProt Q13627); details: cited from earlier work
# PIM1 = PIM1 (Homo sapiens, UniProt P11309); details: cited from earlier work
# Chain of PIM1 (P11309 whole entry, species assumed): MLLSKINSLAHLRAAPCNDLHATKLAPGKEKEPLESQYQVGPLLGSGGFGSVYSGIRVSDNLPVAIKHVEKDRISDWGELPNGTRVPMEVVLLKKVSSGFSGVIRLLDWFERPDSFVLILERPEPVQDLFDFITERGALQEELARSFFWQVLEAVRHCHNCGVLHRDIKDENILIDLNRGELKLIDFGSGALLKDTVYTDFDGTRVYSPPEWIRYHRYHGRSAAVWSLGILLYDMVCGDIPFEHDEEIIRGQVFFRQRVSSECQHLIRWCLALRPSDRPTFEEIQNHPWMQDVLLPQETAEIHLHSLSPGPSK
# [8] = molecular target: extracellular-signal-regulated kinase 8 (ERK8) (Homo sapiens, UniProt Q8TD08); details: cited from earlier work
# Chain of extracellular-signal-regulated kinase 8 (ERK8) (Q8TD08 whole entry, species assumed): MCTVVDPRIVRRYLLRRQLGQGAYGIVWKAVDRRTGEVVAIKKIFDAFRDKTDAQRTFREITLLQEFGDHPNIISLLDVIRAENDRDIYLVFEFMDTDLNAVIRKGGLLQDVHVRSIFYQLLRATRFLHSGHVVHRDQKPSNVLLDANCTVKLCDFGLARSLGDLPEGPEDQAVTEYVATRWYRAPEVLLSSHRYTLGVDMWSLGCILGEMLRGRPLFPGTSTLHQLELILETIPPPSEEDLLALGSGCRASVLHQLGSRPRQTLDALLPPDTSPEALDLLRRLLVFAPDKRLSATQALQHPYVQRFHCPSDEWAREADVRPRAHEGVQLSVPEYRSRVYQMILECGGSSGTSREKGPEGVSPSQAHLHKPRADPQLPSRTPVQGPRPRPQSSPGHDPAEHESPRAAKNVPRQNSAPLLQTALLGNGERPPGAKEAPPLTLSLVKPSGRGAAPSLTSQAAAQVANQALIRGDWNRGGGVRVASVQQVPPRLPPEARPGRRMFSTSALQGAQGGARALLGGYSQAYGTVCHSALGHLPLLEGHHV
# IL8, CXCL10, p21, p16 = experiment: Gene expression in BM-derived HSPCs (qPCR); type: cell-based, human; details: 18 weeks post transplantation, HS/AAV6 ± GSE56
# Method: For gene expression analyses, total RNA was extracted using either miRNeasy Micro Kit (QIAGEN) according to the manufacturer's instructions and DNase treatment was performed using RNase-free DNase Set (QIAGEN). cDNA was synthetized with iScript cDNA Synthesis Kit (Bio-Rad). cDNA was then pre-amplified using TaqMan PreAmp Master Mix (ThermoFisher) and used for q-PCR in a Viia7 Real-time PCR thermal cycler using both Fast SYBR Green Master Mix (Thermofisher), after standard curve method optimization to reach the 100% primer efficiency for each couple of primers listed in 1. The relative expression of each target gene was first normalized to GUSB housekeeping genes expression and then represented as 2^-DCt for each sample or as fold changes (2^-DDCt) relative to the indicated control conditions.
# human CD34+ HSPCs [9] = experiment: Colony-forming unit cell (CFU-C) assay; type: cell-based; details: CB HSPCs, HS/AAV6; inhibitor at time of GE vs standard protocol; 24 h and 96 h post GE
# IL1A, IL8, IL6, CCL2 = experiment: Inflammatory cytokine expression in edited HSPCs (qPCR); type: cell-based, human; details: CB HSPCs, HS/AAV6; inhibitor at time of GE vs standard protocol
# edited human CD34+ HSPCs = experiment: CD34+ HSPC xenotransplantation in NSG mice; type: in vivo; details: inhibitor at time of ex vivo GE (GSE56: limiting cell doses)
# [10] = test system: BM-derived human CD34+ cells; experiment: Senescence markers (p16, SA-β-Gal) in BM-derived cells of the human graft; type: in vivo, NSG mice; details: NSG mice, endpoint 15-18 weeks; inhibitor at time of ex vivo GE
# [11] = test system: BM-derived human CD34+ cells; experiment: CFU-C assay of CD34+ cells retrieved from bone marrow of primary recipients; type: cell-based; details: 15-18 weeks, inhibitor at time of ex vivo GE vs standard protocol
molecule,measurement,setting,value
"CCOc1cc(N2CCC(O)CC2)ccc1Nc1ncc2c(n1)N(C)c1ccccc1C(=O)N2C [XMD 8-92, 2-[[2-Ethoxy-4-(4-hydroxy-1-piperidinyl)phenyl]amino]-5,11-dihydro-5,11-dimethyl-6H-pyrimido[4,5-b][1,4]benzodiazepin-6-one]",Kd,BRD4,190 nM
"Nc1nnc(Sc2ncc([N+](=O)[O-])s2)s1 [SU 3327, 5-[(5-Nitro-2-thiazolyl)thio]-1,3,4thiadiazol-2-amine]",IC50,JNK and JIP,239 nM
same,IC50,JNK [1],700 nM
Cn1c(=O)n(-c2ccc(C(C)(C)C#N)cc2)c2c3cc(-c4cnc5ccccc5c4)ccc3ncc21 [BEZ235],IC50,ATR [2],~21 nM
"O=C1c2ccccc2-c2n[nH]c3cccc1c23 [SP600125, Anthra[1-9-cd]pyrazol-6(2H)-one]",IC50,"JNK1, 2 and 3",40 to 90 nM
same,GFP levels in HSPC subpopulations (GE efficiency),"human CD34+ HSPCs [3]; CB HSPCs, Erk (4 μM) or Jnk (2 μM) inhibitor day 1 and 2 vs DMSO, 96 h post-editing",increase in GFP levels
same,Percentage of more primitive edited cells,human CD34+ HSPCs [3]; Jnk inhibitor 2 μM day 1 and 2,higher percentage of more primitive edited cells
"CCOc1nc(NC(=O)Cc2cc(OC)ccc2OC)cc(N)c1C#N [TCS JNK 6o, N-(4-Amino-5-cyano-6-ethoxy-2-pyridinyl)-2,5-dimethoxybenzeneacetamide]",EC50,c-Jun phosphorylation,920 nM
C[S+]([O-])c1ccc(-c2nc(-c3ccncc3)c(-c3ccc(F)cc3)[nH]2)cc1 (centres unmarked) [SB 203580 hydrochloride],solubility,[4],water-soluble
"Cl.Cl.c1cc(OCCN2CCCCC2)cc(-c2n[nH]c3ccc(-c4ncn[nH]4)cc23)c1 [CC 401 dihydrochloride, 3-[3-[2-(1-Piperidinyl)ethoxy]phenyl]-5-(1H-1,2,4-triazol-5-yl)-1H-indazole dihydrochloride]","selectivity for JNK over p38, ERK, IKK2, protein kinase C, Lck and ZAP70",JNK [5],> 40 fold
same,Ki,JNK [1],25 to 50 nM
O=C(NC(NC(=S)Nc1ccc(F)c([N+](=O)[O-])c1)C(Cl)(Cl)Cl)C(c1ccccc1)c1ccccc1 (centres unmarked) [CGK 733],IC50,ATR [6],~200 nM
same,IC50,ATM kinase,~200 nM
"Nc1n[nH]c2nnc(-c3c(-c4ccccc4)nn4ccccc34)cc12 [FR180204, 5-(2-Phenyl-pyrazolo[1,5-a]pyridin-3-yl)-1H-pyrazolo[3,4-c]pyridazin-3-ylamine]",IC50,Mv1Lu cells,3100 nM
same,"activity against MEK1, MKK4, IKKα, PKCα, Src, Syc and PDGFα",[7],no activity
O=c1cc(-c2cccc3c2Sc2ccccc2S3)oc(N2CCOCC2)c1 [KU-55933],solubility,[4],soluble in DMSO and ethanol
"CN(C)c1nc2c(Br)c(Br)c(Br)c(Br)c2n1CC(=O)O [TMCB, 2-(4,5,6,7-Tetrabromo-2-(dimethylamino)-1H-benzo[d]imidazol-1-yl)acetic acid]",Ki,HIPK2,15200 nM
same,IC50,casein kinase 2 (CK2),500 nM
same,Ki,casein kinase 2 (CK2),250 nM
same,Ki,DYRK1a,11900 nM
same,Ki,PIM1,8650 nM
same,IC50,[8],500 nM
B1,"mRNA levels of p21, p16 and IL8 in BM-derived HSPCs","IL8, CXCL10, p21, p16",mitigated by the administration of GSE56
same,Number of colonies (HSPC clonogenic potential),human CD34+ HSPCs [9],similarly increased
same,"Relative expression of inflammatory cytokine genes (IL1A, IL8, IL6, CCL2)","IL1A, IL8, IL6, CCL2",downregulation of the cytokines
same,Human CD45+ engraftment in peripheral blood vs standard protocol,edited human CD34+ HSPCs,fourfold higher engraftment than the standard protocol
same,Percentage of HDR-edited alleles (ddPCR),"human CD34+ HSPCs [3]; CB HSPCs, AAVS1 editing (HS/AAV6), inhibitor at time of GE (Anakinra 50 ng/μl, SC514 25 μM, GSE56 mRNA, ATMi) vs standard protocol",tended to increase the percentage of HDR editing
same,"Percentage of senescent cells (p16, SA-β-Gal) in BM-derived CD34+ / HDR-edited cells of the human graft",[10],prevented the accumulation of the senescence marker SA-β-gal; also recorded: this reduction was observed also upon p53 inhibition
same,Number of colonies formed by BM-derived CD34+ cells,[11],improvement of HSPC clonogenic potential upon p53 inhibition; also recorded: became higher upon p53 inhibition
